Measurements from ChEMBL document CHEMBL6109180, “De Novo-Designed APC/C Inhibitors Provide a Rationale for Targeting RING-Type E3 Ubiquitin Ligases” (J Med Chem, 2025).
Activity calls are given as the source filed them. No cut-off for these calls is given here. Bridge positions count the residues as written; N and C are the ends. Square brackets hold non-standard residues; d marks the D form. Peptide text beside a SMILES is read from it. R8 = C=CCCCCCC[C@@](C)(N)C(=O)O; S5 = C=CCCC[C@](C)(N)C(=O)O

Legend:
[1] = tested on: HeLa; test: (§1) Inhibition of recombinant APC/C/cdc20 (unknown origin) in metaphase-synchronized human HeLa cells co-expressing GST-tagged UBA1/UBE2C/methylated ubiquitin using RD680-labeled securin as substrate at 100 uM measured after 45 mins in presence of ATP by immuno-precipitation method; type: cell-based
[2] = tested on: TERT-RPE1; test: Effect on time length of mitosis in human RPE-1 cells at 50 uM measured for 10 to 24 hrs by bright field microscopy; type: functional, cell-based; details: time 10-24 hrs
[3] = target: Anaphase-promoting complex subunit 11 (Homo sapiens) (UniProt Q9NYG5); test: Binding affinity to APC11 (unknown origin) assessed as binding free energy
Sequence of Anaphase-promoting complex subunit 11 (Homo sapiens) (Q9NYG5 whole entry, one chain of several): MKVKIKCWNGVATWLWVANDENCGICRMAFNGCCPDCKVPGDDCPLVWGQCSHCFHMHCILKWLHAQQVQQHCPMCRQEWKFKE

[4] = tested on: HeLa; test: Inhibition of recombinant APC/C/cdc20 (unknown origin) in metaphase-synchronized human HeLa cells co-expressing GST-tagged UBA1/UBE2D1/methylated ubiquitin using RD680-labeled securin as substrate at 100 uM measured after 45 mins in presence of ATP by immuno-precipitation method; type: cell-based
[5] = tested on: HeLa; test: as §1, with “substrate assessed as maximum inhibition” for “substrate”, “15” for “45”; type: cell-based

Row | SMILES | inhibition [1] | Activity [2] | deltaG [3] [kcal/mol] | inhibition [4] | inhibition [5]
1 | CC[C@H](C)[C@@H]1NC(=O)[C@@](C)(NC(=O)[C@H](CCC(N)=O)NC(=O)[C@@H]2CCCN2C(=O)[C@H](Cc2c[nH]c3ccccc23)NC(=O)[C@H](CCCNC(=N)N)NC(C)=O)CCC/C=C/CCC[C@@](C)(C(=O)N[C@@H](CCC(N)=O)C(=O)N[C@H](C(=O)N[C@@H](CCCNC(=N)N)C(=O)N[C@@H](Cc2c[nH]c3ccccc23)C(=O)N[C@@H](Cc2c[nH]c3ccccc23)C(N)=O)C(C)C)NC(=O)[C@H](CC(=O)O)NC(=O)[C@H](CCCCN)NC1=O (Ac-RWPQ[S5]IKD[S5]QVRWW-NH2; staple (E) 5-9) | Active; Compound Exerted Better Inhibitory Effect Than Tame | No effect | – | – | –
2 | CC(=O)N[C@H](C(=O)N[C@@H](Cc1cnc[nH]1)C(=O)N[C@H]1CSSC[C@@H](C(=O)N[C@@H](CCC(N)=O)C(=O)N[C@@H](CCCNC(=N)N)C(=O)N[C@H](C(N)=O)C(C)C)NC(=O)[C@H](CC(N)=O)NC(=O)[C@H](Cc2c[nH]c3ccccc23)NC(=O)[C@H](CCCNC(=N)N)NC(=O)[C@H](Cc2c[nH]c3ccccc23)NC(=O)[C@H]([C@@H](C)O)NC(=O)[C@H](CCC(=O)O)NC(=O)[C@@H]2CCCN2C(=O)[C@H](CC(=O)O)NC(=O)[C@H](CC(=O)O)NC1=O)[C@@H](C)O (Ac-THCDDPETWRWNCQRV-NH2; disulfide 3-13) | Active | – | -29.4 | Active | Active
3 | CC(=O)N[C@@H](CCCNC(=N)N)C(=O)N[C@@H](Cc1c[nH]c2ccccc12)C(=O)N1CCC[C@H]1C(=O)N[C@@H](CCC(N)=O)C(=O)N[C@@]1(C)CCC/C=C/CCC[C@@](C)(C(=O)N[C@@H](CCC(N)=O)C(=O)N[C@H](C(=O)N[C@@H](CCCNC(=N)N)C(=O)N[C@@H](CCCNC(=N)N)C(=O)N[C@@H](Cc2c[nH]c3ccccc23)C(N)=O)C(C)C)NC(=O)[C@H](CC(=O)O)NC(=O)[C@H](Cc2c[nH]c3ccccc23)NC(=O)[C@H](CCCCN)NC1=O (Ac-RWPQ[S5]KWD[S5]QVRRW-NH2; staple (E) 5-9) | Active; Compound Exerted Better Inhibitory Effect Than Tame | No effect | – | – | –
4 | C[C@@H](O)[C@H](NC(=O)[C@H](CC(=O)O)NC(=O)CN)C(=O)N[C@H]1CSSC[C@@H](C(=O)N[C@@H](CCC(N)=O)C(=O)N[C@@H](CCCNC(=N)N)C(=O)N[C@@H](Cc2cnc[nH]2)C(=O)O)NC(=O)[C@H](CC(N)=O)NC(=O)[C@H](Cc2c[nH]c3ccccc23)NC(=O)[C@H](CCCNC(=N)N)NC(=O)[C@H](Cc2c[nH]c3ccccc23)NC(=O)[C@H]([C@@H](C)O)NC(=O)[C@H](CCC(=O)O)NC(=O)[C@@H]2CCCN2C(=O)[C@H](CC(=O)O)NC(=O)[C@H](CC(=O)O)NC1=O (H-GDTCDDPETWRWNCQRH-OH; disulfide 4-14) | Active | – | -29.4 | Active | –
5 | CC(=O)N[C@@H](CCCNC(=N)N)C(=O)N[C@@H](CCCNC(=N)N)C(=O)N[C@@H](CCCCN)C(=O)N[C@]1(C)CCCCCC/C=C\CCC[C@@](C)(C(=O)N[C@H](C(=O)N[C@@H](CCCNC(=N)N)C(=O)N[C@@H](Cc2ccc(O)cc2)C(N)=O)C(C)C)NC(=O)[C@H](CCCNC(=N)N)NC(=O)[C@H](C)NC(=O)[C@H](CCCNC(=N)N)NC(=O)[C@H](CCC(=O)O)NC(=O)[C@H](CCC(N)=O)NC(=O)[C@H](C)NC1=O (Ac-RRK[R8]AQERAR[S5]VRY-NH2; staple (Z) 4-11) | inactive | – | – | – | –
6 | CC(=O)N[C@H]1CSSC[C@@H](C(=O)N[C@@H](CCC(=O)O)C(=O)N[C@@H](Cc2c[nH]c3ccccc23)C(=O)N[C@@H](CCCNC(=N)N)C(=O)N[C@@H](Cc2ccc(O)cc2)C(N)=O)NC(=O)[C@H](Cc2cnc[nH]2)NC(=O)[C@H](Cc2c[nH]c3ccccc23)NC(=O)[C@H](CCC(N)=O)NC(=O)[C@H](CO)NC(=O)[C@@H]2CCCN2C(=O)CNC(=O)[C@H](C)NC(=O)[C@H](CCC(=O)O)NC1=O (Ac-CEAGPSQWHCEWRY-NH2; disulfide 1-10) | – | – | -19.6 | inactive | –
7 | CC(=O)N[C@H]1CSSC[C@@H](C(=O)N[C@H](C(=O)N[C@@H](Cc2c[nH]c3ccccc23)C(=O)N[C@@H](CCCNC(=N)N)C(=O)N[C@@H](Cc2ccc(O)cc2)C(N)=O)[C@@H](C)O)NC(=O)[C@H](Cc2cnc[nH]2)NC(=O)[C@H](Cc2c[nH]c3ccccc23)NC(=O)[C@H](CCC(N)=O)NC(=O)[C@H](CO)NC(=O)[C@@H]2CCCN2C(=O)CNC(=O)[C@H](C)NC(=O)[C@H](CCC(=O)O)NC1=O (Ac-CEAGPSQWHCTWRY-NH2; disulfide 1-10) | – | – | -18.3 | inactive | –
8 | CC[C@H](C)[C@@H]1NC(=O)[C@H](CCC(=O)O)NC(=O)[C@H](CC(C)C)NC(=O)[C@@H](CCCCN)NC(=O)[C@](C)(NC(=O)[C@H](Cc2c[nH]c3ccccc23)NC(=O)[C@H](Cc2c[nH]c3ccccc23)NC(=O)[C@H](CCC(=O)O)NC(C)=O)CCCCCC/C=C\CCC[C@@](C)(C(=O)N[C@@H](CCCNC(=N)N)C(=O)N[C@@H](CCCNC(=N)N)C(=O)N[C@@H](C)C(N)=O)NC(=O)[C@H](CCCNC(=N)N)NC(=O)[C@H](CCC(N)=O)NC1=O | Active; Compound Exerted Better Inhibitory Effect Than Tame | No effect | – | – | –
9 | C[C@@H](O)[C@H](NC(=O)[C@H](CCCNC(=N)N)NC(=O)[C@@H]1CSSC[C@H](NC(=O)[C@H](CCCNC(=N)N)NC(=O)CN)C(=O)N[C@@H](Cc2cnc[nH]2)C(=O)N[C@@H](Cc2c[nH]c3ccccc23)C(=O)NCC(=O)N2CCC[C@H]2C(=O)N[C@@H](CCC(=O)O)C(=O)N[C@@H]([C@@H](C)O)C(=O)N[C@@H](Cc2ccccc2)C(=O)N[C@@H](Cc2c[nH]c3ccccc23)C(=O)N1)C(=O)O (H-GRCHWGPETFWCRT-OH; disulfide 3-12) | – | – | -19.4 | Active | –
10 | CC(=O)N[C@@H](CCCNC(=N)N)C(=O)N[C@H]1CSSC[C@@H](C(=O)N[C@@H](CCCNC(=N)N)C(N)=O)NC(=O)[C@H](Cc2c[nH]c3ccccc23)NC(=O)[C@H](Cc2ccccc2)NC(=O)[C@H]([C@@H](C)O)NC(=O)[C@H](CCC(=O)O)NC(=O)[C@@H]2CCCN2C(=O)CNC(=O)[C@H](Cc2c[nH]c3ccccc23)NC(=O)[C@H](CO)NC1=O (Ac-RCSWGPETFWCR-NH2; disulfide 2-11) | Active | – | -24.2 | Active | –
11 | CC(=O)N[C@@H](CCC(=O)O)C(=O)N[C@@H](Cc1c[nH]c2ccccc12)C(=O)N[C@@H](Cc1c[nH]c2ccccc12)C(=O)N[C@]1(C)CCCCCC/C=C\CCC[C@@](C)(C(=O)N[C@@H](CCCNC(=N)N)C(=O)N[C@@H](CCCNC(=N)N)C(=O)N[C@@H](C)C(N)=O)NC(=O)[C@H](CCCNC(=N)N)NC(=O)[C@H](CCC(N)=O)NC(=O)[C@H](CC(C)C)NC(=O)[C@H](CCC(=O)O)NC(=O)[C@H](CC(C)C)NC(=O)[C@H](CCCCN)NC1=O (Ac-EWW[R8]KLELQR[S5]RRA-NH2; staple (Z) 4-11) | Active; Compound Exerted Better Inhibitory Effect Than Tame | – | – | – | –
12 | CC(=O)N[C@@H](CCCNC(=N)N)C(=O)N[C@H]1CSSC[C@@H](C(=O)N[C@@H](CCCNC(=N)N)C(N)=O)NC(=O)[C@H](Cc2c[nH]c3ccccc23)NC(=O)[C@H](Cc2ccccc2)NC(=O)[C@H]([C@@H](C)O)NC(=O)[C@H](CCC(=O)O)NC(=O)[C@@H]2CCCN2C(=O)CNC(=O)[C@H](Cc2c[nH]c3ccccc23)NC(=O)[C@H](Cc2cnc[nH]2)NC1=O (Ac-RCHWGPETFWCR-NH2; disulfide 2-11) | Active | – | -21.1 | Active | –
